Reference: patent US20150141251A1, “SPONTANEOUS SELF-FORMING MIXED SURFACTANT NANO-EMULSIONS FROM WATER INSOLUBLE PESTICIDES IN MIXED WATER MISCIBLE SOLVENTS” (priority 2012, published 2015)

Test system: Alfalfa weevil
Assay: Alfalfa weevil control on sprayed Alfalfa plots
Assay type: in vivo
Details: Treatment No. 2, 0.022 lb active ingredient per acre
Excerpt: The relative effect of pesticidal formulation of the present disclosure was studied for controlling Alfalfa weevil on Alfalfa:
To study the effect of formulation of the present disclosure, four 10×20 sq.ft plots of Alfalfa were set up for each treatment and 20 gal/acre test solution was sprayed with hand sprayer. Then 10 stems of Alfalfa per replication were collected randomly after 4 days and 7 days of treatment. The stems so collected were shaken into 1 gal white container. The evaluation results obtained are provided herein Table No. 5.

CC1(C)C(C=C(Cl)Cl)C1C(=O)OC(C#N)c1ccc(F)c(Oc2ccccc2)c1 (stereo not drawn) [Beta- CYFLUTHRIN]
Alfalfa weevil larvae/10 stems (Mean ± SE) (4 Days after treatment): 0.3 ± 0.3 larvae/10 stems | Alfalfa weevil larvae/10 stems (Mean ± SE) (7 Days after treatment): 0.0 ± 0.0 larvae/10 stems
